Assay results from patent publication US10173990B2, “URAT1 inhibitor” (Nippon Chemiphar Co., Ltd., priority 2014, dated 2019).

Target: URAT1 (Homo sapiens (Human), UniProt Q96S37)
Assay: Uptake of [14C] uric acid using HEK-URAT1
Format: cell-based
Conditions: for remaining activity at 10 µM: 2 min, [14C] uric acid uptake into URAT1 stably expressed HEK293 cells, 10 μM test compound, 5 μM uric acid, 2 minutes, 37° C., uptake without test compound = 100%, read-out: % control (10 μM); for IC50: inhibition of [14C] uric acid uptake into URAT1 stably expressed HEK293 cells
Method: More specifically, the test is performed by culturing URAT1 stably expressed HEK293 cells (HEK-URAT1) or HEK293 cells transfected with empty vector (HEK-mock) in a DMEM culture medium in an incubator. Subsequently, 1×10^5 cells are respectively seeded in 24-well culture plate coated with poly D-lysine and the uptake test is started after the culturing.
The cells are washed with a solution for a test warmed to 37° C. and equilibrated. After a buffer solution is removed from the cells, 0.5 mL of an uptake solution containing 5 μM [^14C] uric acid with or without a test compound is respectively added and the cells are incubated. The cell uptake is stopped by adding a Hanks buffer solution and the cells are washed. The cells are lysed with 0.1 N sodium hydroxide and the radioactivity is measured using LSC6100 (Aloka Co., Ltd. Tokyo). Each uptake into HEK-URAT1 is acquired by subtracting uptake into HEK-mock cells from the value of HEK-URAT1, converting the result to per mg protein of cells, and setting the values from the uptake without the test compound as 100%.
URAT1 stably expressed HEK293 cells (HEK-URAT1) or HEK293 cells transfected with empty vector (HEK-mock) were cultured in DMEM culture medium supplemented with 10% fetal bovine serum in an incubator under conditions of 5% carbon dioxide at 37° C. Subsequently, 1×10^5 cells were respectively seeded in 24-well culture plate coated with poly D-lysine and the uptake test was started after the culturing for 3 days.
The uptake experiment of uric acid was performed at 37° C. […] After a buffer solution was removed from the cells, 0.5 mL of an uptake solution containing 5 μM [^14C] uric acid with or without a test compound was respectively added and the cells were incubated for 2 minutes. The cell uptake was stopped by adding an ice-cold Hanks buffer solution without chloride ions and the cells were washed 3 times. The cells were lysed with 0.1 N sodium hydroxide and the radioactivity was measured using LSC6100 (Aloka Co., Ltd. Tokyo). Each uptake into HEK-URAT1 was acquired by subtracting uptake into HEK-mock cells from the value of HEK-URAT1, converting the result to per mg protein of cells, and setting the value from uptake without the test compound as 100%. The uptake in each condition was performed in triplicate and each value was represented by average±standard deviation.
The URAT1 inhibitory action was measured according to the same method as in Example 118.

Sequence of URAT1 (Q96S37 whole entry): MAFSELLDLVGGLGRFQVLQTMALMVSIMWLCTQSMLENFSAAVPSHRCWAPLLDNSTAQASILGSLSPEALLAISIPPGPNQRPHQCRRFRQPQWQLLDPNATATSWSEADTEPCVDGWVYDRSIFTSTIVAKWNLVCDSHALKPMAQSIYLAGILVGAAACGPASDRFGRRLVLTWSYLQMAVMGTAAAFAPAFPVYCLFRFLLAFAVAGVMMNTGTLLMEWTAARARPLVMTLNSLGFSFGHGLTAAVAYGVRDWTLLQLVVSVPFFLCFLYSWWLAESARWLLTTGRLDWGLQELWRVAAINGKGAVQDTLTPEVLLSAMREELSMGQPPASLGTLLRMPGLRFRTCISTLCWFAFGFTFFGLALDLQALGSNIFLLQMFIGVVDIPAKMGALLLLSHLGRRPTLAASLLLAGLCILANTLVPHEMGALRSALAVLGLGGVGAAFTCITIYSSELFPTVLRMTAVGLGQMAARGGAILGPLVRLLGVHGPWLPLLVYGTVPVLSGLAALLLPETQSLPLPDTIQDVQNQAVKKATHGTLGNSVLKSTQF

remaining activity at 10 µM | IC50 | SMILES
15.1% | 790 nM | CC(C)(Sc1ccc2ccccc2c1-c1ccc(C#N)c2ccccc12)C(=O)O [Example 4, 2-[(4′-Cyano[1,1′-binaphthalene]-2-yl)thio]-2-methylpropanoic acid]
50.1% | 3440 nM | CC(C)(Sc1ccc2ncccc2c1-c1ccc(C#N)cc1)C(=O)O [Example 15, 2-[[5-(4-Cyanophenyl)quinolin-6-yl]thio]-2-methylpropanoic acid]
5.4% | – | N#Cc1ccc(-c2c(O/C=C/C(=O)O)ccc3ccccc23)cc1 [Example 6, (E)-3-[[1-(4-Cyanophenyl)naphthalen-2-yl]oxy]acrylic acid]
< 0.1% | 12 nM | CC(C)(Sc1ccc2cnsc2c1-c1ccc([N+](=O)[O-])cc1)C(=O)O [Example 72, 2-Methyl-2-[[7-(4-nitrophenyl)benzo[d]isothiazol-6-yl]thio]propanoic acid]
1.3% | 25 nM | C/C(=C\C(=O)O)Sc1ccc2ccccc2c1-c1ccc(C#N)cc1 [Example 116, (E)-3-[[1-(4-cyanophenyl)naphthalen-2-yl]thio]-2-butenoic acid]
1.8% | 21.5 nM | N#Cc1ccc(-c2c(SC3(C(=O)O)CCC3)ccc3cnsc23)cc1 [Example 66, 1-[[7-(4-Cyanophenyl)benzo[d]isothiazol-6-yl]thio]cyclobutan-1-carboxylic acid]
